Assay results from PMC10946806, “Development of Bifunctional, Raman Active Diyne‐Girder Stapled α‐Helical Peptides” (Chemistry (Weinheim an Der Bergstrasse, Germany), 2023).

Test: on-resin Glaser oxidative coupling of two terminal alkynes (i,i+7 side chains) to 1,3-diyne; CuCl 5 eq, 4,4'-bis(hydroxymethyl)-2,2'-bipyridine 7.5 eq, DIPEA 20 eq, microwave
Conditions: the molecule shown is the open-chain precursor, DMF, 10.0 mM, 60.0 °C, 3.0 h

| SMILES | ring closure, conversion by HPLC (36-membered ring) | ring closure, conversion by HPLC (38-membered ring) | further results |
| --- | --- | --- | --- |
| C#CCCCCC[C@@](C)(NC(=O)[C@H](CCCCNC(=O)OC(C)(C)C)NC(=O)[C@H](C)NC(=O)CCCCCNC(=O)OCC1c2ccccc2-c2ccccc21)C(=O)N[C@@H](Cc1ccc(OC(C)(C)C)cc1)C(=O)N[C@@H](C)C(=O)N[C@@H](CCCNC(=N)NS(=O)(=O)c1c(C)c(C)c2c(c1C)CC(C)(C)O2)C(=O)N[C@@H](CCCC)C(=O)NCC(=O)N[C@@H](CCCNC(=N)NS(=O)(=O)c1c(C)c(C)c2c(c1C)CC(C)(C)O2)C(=O)N[C@@](C)(CCCCCC#C)C(=O)N[C@@H](CC(C)C)C(=O)N[C@@H](CCCCNC(=O)OC(C)(C)C)C(=O)N[C@@H](CCC(=O)OC(C)(C)C)C(=O)N[C@H](C(=O)N[C@@H](C)C(=O)N[C@@H](CCCCNC(=O)OC(C)(C)C)C(N)=O)[C@@H](C)CC | 94% |  |  |
| C#CCCCCC[C@@](C)(NC(=O)[C@H](CCCCNC(=O)OC(C)(C)C)NC(=O)[C@H](C)NC(=O)CCCCCNC(=O)OCC1c2ccccc2-c2ccccc21)C(=O)N[C@@H](Cc1ccc(OC(C)(C)C)cc1)C(=O)N[C@@H](C)C(=O)N[C@@H](CCCNC(=N)NS(=O)(=O)c1c(C)c(C)c2c(c1C)CC(C)(C)O2)C(=O)N[C@@H](CCCC)C(=O)NCC(=O)N[C@@H](CCCNC(=N)NS(=O)(=O)c1c(C)c(C)c2c(c1C)CC(C)(C)O2)C(=O)N[C@](C)(CCCCCC#C)C(=O)N[C@@H](CC(C)C)C(=O)N[C@@H](CCCCNC(=O)OC(C)(C)C)C(=O)N[C@@H](CCC(=O)OC(C)(C)C)C(=O)N[C@H](C(=O)N[C@@H](C)C(=O)N[C@@H](CCCCNC(=O)OC(C)(C)C)C(N)=O)[C@@H](C)CC | 68% |  |  |
| C#CCCCC[C@](C)(NC(=O)[C@H](CCCCNC(=O)OC(C)(C)C)NC(=O)[C@H](C)NC(=O)CCCCCNC(=O)OCC1c2ccccc2-c2ccccc21)C(=O)N[C@@H](Cc1ccc(OC(C)(C)C)cc1)C(=O)N[C@@H](C)C(=O)N[C@@H](CCCNC(=N)NS(=O)(=O)c1c(C)c(C)c2c(c1C)CC(C)(C)O2)C(=O)N[C@@H](CCCC)C(=O)NCC(=O)N[C@@H](CCCNC(=N)NS(=O)(=O)c1c(C)c(C)c2c(c1C)CC(C)(C)O2)C(=O)N[C@@](C)(CCCCC#C)C(=O)N[C@@H](CC(C)C)C(=O)N[C@@H](CCCCNC(=O)OC(C)(C)C)C(=O)N[C@@H](CCC(=O)OC(C)(C)C)C(=O)N[C@H](C(=O)N[C@@H](C)C(=O)N[C@@H](CCCCNC(=O)OC(C)(C)C)C(N)=O)[C@@H](C)CC |  |  | ring closure, conversion by HPLC (34-membered ring): 65% |
| C#CCCCCC[C@H](NC(=O)[C@H](CCCNC(=N)NS(=O)(=O)c1c(C)c(C)c2c(c1C)CC(C)(C)O2)NC(=O)CNC(=O)[C@H](CCCC)NC(=O)[C@H](CCCNC(=N)NS(=O)(=O)c1c(C)c(C)c2c(c1C)CC(C)(C)O2)NC(=O)[C@H](C)NC(=O)[C@H](Cc1ccc(OC(C)(C)C)cc1)NC(=O)[C@H](CCCCCC#C)NC(=O)[C@H](CCCCNC(=O)OC(C)(C)C)NC(=O)[C@H](C)NC(=O)CCCCCNC(=O)OCC1c2ccccc2-c2ccccc21)C(=O)N[C@@H](CC(C)C)C(=O)N[C@@H](CCCCNC(=O)OC(C)(C)C)C(=O)N[C@@H](CCC(=O)OC(C)(C)C)C(=O)N[C@H](C(=O)N[C@@H](C)C(=O)N[C@@H](CCCCNC(=O)OC(C)(C)C)C(N)=O)[C@@H](C)CC | 38% |  |  |
| C#CCCC[C@](C)(NC(=O)[C@H](CCCCNC(=O)OC(C)(C)C)NC(=O)[C@H](C)NC(=O)CCCCCNC(=O)OCC1c2ccccc2-c2ccccc21)C(=O)N[C@@H](Cc1ccc(OC(C)(C)C)cc1)C(=O)N[C@@H](C)C(=O)N[C@@H](CCCNC(=N)NS(=O)(=O)c1c(C)c(C)c2c(c1C)CC(C)(C)O2)C(=O)N[C@@H](CCCC)C(=O)NCC(=O)N[C@@H](CCCNC(=N)NS(=O)(=O)c1c(C)c(C)c2c(c1C)CC(C)(C)O2)C(=O)N[C@@](C)(CCCC#C)C(=O)N[C@@H](CC(C)C)C(=O)N[C@@H](CCCCNC(=O)OC(C)(C)C)C(=O)N[C@@H](CCC(=O)OC(C)(C)C)C(=O)N[C@H](C(=O)N[C@@H](C)C(=O)N[C@@H](CCCCNC(=O)OC(C)(C)C)C(N)=O)[C@@H](C)CC |  |  | ring closure, conversion by HPLC (32-membered ring): 52% |
| C#CCCCCCC[C@@](C)(NC(=O)[C@H](CCCCNC(=O)OC(C)(C)C)NC(=O)[C@H](C)NC(=O)CCCCCNC(=O)OCC1c2ccccc2-c2ccccc21)C(=O)N[C@@H](Cc1ccc(OC(C)(C)C)cc1)C(=O)N[C@@H](C)C(=O)N[C@@H](CCCNC(=N)NS(=O)(=O)c1c(C)c(C)c2c(c1C)CC(C)(C)O2)C(=O)N[C@@H](CCCC)C(=O)NCC(=O)N[C@@H](CCCNC(=N)NS(=O)(=O)c1c(C)c(C)c2c(c1C)CC(C)(C)O2)C(=O)N[C@@](C)(CCCCCCC#C)C(=O)N[C@@H](CC(C)C)C(=O)N[C@@H](CCCCNC(=O)OC(C)(C)C)C(=O)N[C@@H](CCC(=O)OC(C)(C)C)C(=O)N[C@H](C(=O)N[C@@H](C)C(=O)N[C@@H](CCCCNC(=O)OC(C)(C)C)C(N)=O)[C@@H](C)CC |  | 100% |  |
| C#CCCCCCC[C@@](C)(NC(=O)[C@H](CCCCNC(=O)OC(C)(C)C)NC(=O)[C@H](C)NC(=O)CCCCCNC(=O)OCC1c2ccccc2-c2ccccc21)C(=O)N[C@@H](Cc1ccc(OC(C)(C)C)cc1)C(=O)N[C@@H](C)C(=O)N[C@@H](CCCNC(=N)NS(=O)(=O)c1c(C)c(C)c2c(c1C)CC(C)(C)O2)C(=O)N[C@@H](CCCC)C(=O)NCC(=O)N[C@@H](CCCNC(=N)NS(=O)(=O)c1c(C)c(C)c2c(c1C)CC(C)(C)O2)C(=O)N[C@](C)(CCCCCCC#C)C(=O)N[C@@H](CC(C)C)C(=O)N[C@@H](CCCCNC(=O)OC(C)(C)C)C(=O)N[C@@H](CCC(=O)OC(C)(C)C)C(=O)N[C@H](C(=O)N[C@@H](C)C(=O)N[C@@H](CCCCNC(=O)OC(C)(C)C)C(N)=O)[C@@H](C)CC |  | 93% |  |
| C#CCCCCC[C@@](C)(NC(=O)[C@H](CCCNC(=N)NS(=O)(=O)c1c(C)c(C)c2c(c1C)CC(C)(C)O2)NC(=O)CNC(=O)[C@H](CCCC)NC(=O)[C@H](CCCNC(=N)NS(=O)(=O)c1c(C)c(C)c2c(c1C)CC(C)(C)O2)NC(=O)[C@H](C)NC(=O)[C@H](Cc1ccc(OC(C)(C)C)cc1)NC(=O)[C@](C)(CCCCCC#C)NC(=O)[C@H](CCCCNC(=O)OC(C)(C)C)NC(=O)[C@H](C)NC(=O)CCCCCNC(=O)OCC1c2ccccc2-c2ccccc21)C(=O)N[C@@H](CC(C)C)C(=O)N[C@@H](CCCCNC(=O)OC(C)(C)C)C(=O)N[C@@H](CCC(=O)OC(C)(C)C)C(=O)N[C@H](C(=O)N[C@@H](C)C(=O)N[C@@H](CCCCNC(=O)OC(C)(C)C)C(N)=O)[C@@H](C)CC | 52% |  |  |
| C#CCCCCCC[C@](C)(NC(=O)[C@H](CCCCNC(=O)OC(C)(C)C)NC(=O)[C@H](C)NC(=O)CCCCCNC(=O)OCC1c2ccccc2-c2ccccc21)C(=O)N[C@@H](Cc1ccc(OC(C)(C)C)cc1)C(=O)N[C@@H](C)C(=O)N[C@@H](CCCNC(=N)NS(=O)(=O)c1c(C)c(C)c2c(c1C)CC(C)(C)O2)C(=O)N[C@@H](CCCC)C(=O)NCC(=O)N[C@@H](CCCNC(=N)NS(=O)(=O)c1c(C)c(C)c2c(c1C)CC(C)(C)O2)C(=O)N[C@@](C)(CCCCCCC#C)C(=O)N[C@@H](CC(C)C)C(=O)N[C@@H](CCCCNC(=O)OC(C)(C)C)C(=O)N[C@@H](CCC(=O)OC(C)(C)C)C(=O)N[C@H](C(=O)N[C@@H](C)C(=O)N[C@@H](CCCCNC(=O)OC(C)(C)C)C(N)=O)[C@@H](C)CC |  | 100% |  |
